The numbers were not newly measured in patent publication US20140329770A1, “Compositions Comprising Phytoestrogens Receptor Beta Agonists and Dietary Fibers for Chemopreventive Treatment of Sporadic Adenomatous Polyposis” (CM&D PHARMA LIMITED, priority 2011, published 2014), which cites them from elsewhere.

Structures are written as SMILES.

One data set concerns rectal ACF. To be noted: 6-months intervention, subjects at increased risk for CRC.

On to `COc1cc(C2Oc3cc([C@H]4Oc5cc(O)cc(O)c5C(=O)[C@@H]4O)ccc3OC2CO)ccc1O` (stereo partly shown) [silybinin], for which the “Tumor growth of human SW480 CRC” value with human SW480 CRC (feeding, nu/nu mice) is given as “suppressed”. Also, the Toxicity result in the data set on human SW480 CRC (mouse, in vivo) is listed as “Without any apparent toxicity”.

Turning to `CC(C)c1c(C(=O)Nc2ccccc2)c(-c2ccccc2)c(-c2ccc(F)cc2)n1CC[C@@H](O)C[C@@H](O)CC(=O)O` [atovarstastin], the “Reduction in rectal ACF numbers compared with maltodextrins” value with rectal ACF is on record as “did not demonstrate significant reductions”.

With `CC1=C(CC(=O)O)c2cc(F)ccc2/C1=C\c1ccc([S+](C)[O-])cc1` (stereo not shown) [sulindac], in the data set on rectal ACF, the “Reduction in rectal ACF numbers compared with maltodextrins” value is reported as “did not demonstrate significant reductions”.
